Source: patent US20230257383A1, “COMPOUND SERVING AS BTK INHIBITOR, PREPARATION METHOD THEREFOR, AND USE THEREOF” (CHENGDU HYPERWAY PHARMACEUTICALS CO., LTD., priority 2020, published 2023)

Key:
[1] = Liver microsome metabolic stability test (human); type: in vitro ADME; settings: for microsomal CLint: liver microsomes, read-out: CLint (μL/min/mg) Human
Method: (§1) 1: To the sample wells of T0, T5, T10, T20, T30, T60 and NCF60, 10 μL of the test or reference working solution and 80 μL of microsome working solution (hepatic microsome with a protein concentration of 0.5 mg/mL) were added, and to Blank60 well, only the microsome working solution was added. Then samples of the Blank60, T5, T10, T20, T30 and T60 other than TO and NCF60 were placed in a 37° C. water bath and pre-incubated for about 10 min.
(§2) 2: To the TO sample well, 300 μL of stop solution (containing 200 ng/mL tolbutamide and 200 ng/mL labetalol in acetonitrile solution) was added first, followed by 10 μL of NADPH regeneration system working solution.
(§3) 3: After the pre-incubation of Blank60, T5, T10, T20, T30 and T60 incubation plates, 10 μL of NADPH regeneration system working solution was added to each sample well to start the reaction, and 10 μL of 100 mM potassium phosphate buffer was added to the NCF60 sample well.
(§4) 4: After incubation for an appropriate time (such as 5, 10, 20, 30 and 60 min), to each test sample well and control well of the Blank60, T5, T10, T20, T30, T60 and NCF60 plates, 300 μL of stop solution was added to terminate the reaction.
(§5) 5: All sample plates were shaken to mix well and centrifuged at 4000 rpm for 20 min, and 100 μL of the supernatant of the test sample or control sample was taken and diluted with 300 μL of pure water for LC-MS/MS analysis.
(§6) 6: Data analysis: T1/2 and CLint(mic) (μL/min/mg) values were calculated according to the first-order elimination kinetics. The first-order elimination kinetics equation was: […]

[2] = Liver microsome metabolic stability test (rat); type: in vitro ADME; settings: for microsomal CLint: liver microsomes, read-out: CLint (μL/min/mg) Rat
Method: as §1, §2, §3, §4, §5, §6

BT474 cell proliferation = experiment: In vitro cell proliferation inhibitory activity test (CTG), BT474; type: cell-based; settings: Homo sapiens, BT-474, BT474 cell proliferation
Method: (§7) Test Example 4: In Vitro Cell Proliferation Inhibitory Activity Test
(§8) Cells were cultured in 1640 medium, added with 10% inactivated FBS and 1% double antibiotics, and cultured at 37° C. and 5% CO2.
(§9) (1) Cells were routinely cultured until the cell density was 80%-90%, and the cells were harvested when their number reached the requirement.
(§10) (2) Cells were resuspended with corresponding culture medium, counted, and prepared into cell suspension at appropriate density.
(§11) (3) The cell suspension was added to a 96-well plate, 100 μL per well.
(§12) (4) Cells were cultured overnight in a 37° C., 5% CO2 incubator.
(§13) (1) The compounds to be tested were diluted with DMSO to make a stock solution with a final concentration of 20 mM for later use.
(§14) (2) The stock solution was diluted 10 times from 20 mM to 2 mM with DMSO, and then diluted 3 times from 2 mM to 9 concentrations.
(§15) (3) The blank control wells were cells plus 0.5% DMSO, as high-reading control wells.
(§16) (4) Wells with no cells and only medium were used as low-reading control wells.
(§17) 4: Cell treatment with compound
(§18) (1) 24 h after the cells were plated, the compounds acted alone, and 99 μL of growth medium was added to each well, followed by 1 μL of the compound prepared in step 3. The plate was shaken gently to mix uniformly, and then placed in a 37° C., 5% CO2 incubator.
(§19) (2) The cell plate was placed in an incubator for 72 h.
(§20) 5: Detection by CTG method
(§21) (1) The cell plate to be tested was placed at room temperature for 30 min, and 100 μL of medium was discarded from each well.
(§22) (2) 100 μL of CTG reagent (CelltiterGlo kit) was added to each well, placed on a fast shaker for 2 min, and stood at room temperature in the dark for 30 min.
(§23) (3) The chemiluminescent signal value was read with the Envision instrument.
(§24) IC50 was calculated by using GraphPad Prism 8 software. The IC50 (half inhibitory concentration) of the compound was derived using the following nonlinear fitting formula, and the results are shown in the following table:
(§25) Y=Bottom+(Top−Bottom)/(1+10^((Log IC50−X)×HillSlope))
(§26) X: log value of compound concentration, Y: inhibition rate (% inhibition)
(§27) Inhibition rate (% inhibition)=(reading of high-reading control well-reading of compound well)/(reading of high-reading control well-reading of low-reading control well)×100

TMD8 cell proliferation = experiment: In vitro cell proliferation inhibitory activity test (CTG), TMD8; type: cell-based; settings: Homo sapiens, TMD8, 72 h, TMD8 cells
Method: as §7, §8, §9, §10, §11, §12, §13, §14, §15, §16, §17, §18, §19, §20, §21, §22, §23, §24, §25, §26, §27

[3] = Pharmacokinetic test, oral, SD rats; type: in vivo; settings: oral 10 mg/kg
Method: Each test compound was administered orally (10 mg/kg, 3 rats in each group) to SD rats for pharmacokinetic study. […] Animals were fasted overnight before oral administration, and fed again after 4 h of administration. […] At each collection time point, 3 whole blood samples were collected at a the collection volume of about 0.2-0.3 mL. […] The collected plasma was stored at −20° C. before analysis. 20 μL of plasma sample was added into a 1.6 mL 96-well deep-well plate, added with 200 μL of working internal standard solution (the same volume of vehicle was added to the blank instead of internal standard), vortexed for 1 min, and centrifuged at 5800 rpm for 10 min. 100 μL of the supernatant was added to a 96-well injection plate for LC-MS/MS analysis.

SMILES: Nc1nccn2c(C3CCC(CO)OC3)nc(-c3ccc(Oc4cccc(F)c4F)cc3)c12 (centres unmarked) [Example 8]
- microsomal CLint [1]: 33.9 µL/min/mg
- microsomal CLint [2]: 66.5 µL/min/mg

SMILES: Nc1nccn2c(C34CCC(CO)(CC3)OC4)nc(-c3ccc(C(F)(c4ccccc4)C(F)(F)F)cc3)c12 (centres unmarked) [Example 158]
- IC50 (BT474 cell proliferation): 4950 nM

SMILES: COc1cccc(Oc2ccc(-c3nc(C4CCC(CO)OC4)n4ccnc(N)c34)cc2)c1 (centres unmarked) [Example 101]
- microsomal CLint [1]: < 9.6 µL/min/mg
- microsomal CLint [2]: 29.8 µL/min/mg

SMILES: CS(=O)(=O)CCNCc1ccc(-c2ccc3ncnc(Nc4ccc(OCc5cccc(F)c5)c(Cl)c4)c3c2)o1 [Lapatinib]
- IC50 (BT474 cell proliferation): 55.2 nM

SMILES: COc1cccc(Oc2ccc(-c3nc(C45CCC(CO)(CC4)OC5)n4ccnc(N)c34)c(F)c2)c1C#N [Example 115]
- IC50 (TMD8 cell proliferation): 6.1 nM

SMILES: Nc1nccn2c(C34CCC(CO)(CC3)OC4)nc(-c3ccc(C(=O)Nc4ccccn4)cc3)c12 [Example 34]
- microsomal CLint [1]: < 9.6 µL/min/mg
- microsomal CLint [2]: < 9.6 µL/min/mg
- IC50 (TMD8 cell proliferation): 56.9 nM

SMILES: Nc1nccn2c(C3CCC(CO)OC3)nc(-c3ccc(Oc4cccc(Cl)c4F)cc3)c12 (centres unmarked) [Example 9]
- % Remaining (60 min) Human [1]: 24.5%
- microsomal CLint [1]: 48.4 µL/min/mg
- % Remaining (60 min) Rat [2]: 3.2%
- microsomal CLint [2]: 114 µL/min/mg

SMILES: Nc1nccn2c(C3CCC(CO)OC3)nc(-c3ccc(Oc4c(F)cccc4F)cc3)c12 (centres unmarked) [Example 64]
- microsomal CLint [1]: 36.8 µL/min/mg
- microsomal CLint [2]: 81.6 µL/min/mg

SMILES: Nc1nccn2c(C3CCC(CO)OC3)nc(-c3ccc(Oc4cccc(C(F)(F)F)c4F)cc3)c12 (centres unmarked) [Example 19]
- microsomal CLint [1]: 47.1 µL/min/mg
- microsomal CLint [2]: 83.1 µL/min/mg

SMILES: Nc1nccn2c(C34CCC(CO)(CC3)OC4)nc(-c3ccc(C(F)(F)c4cccc(C5CC5)c4)cc3)c12 [Example 143]
- IC50 (BT474 cell proliferation): 467 nM

SMILES: Nc1nccn2c(C34CCC(CO)(CC3)OC4)nc(-c3ccc(C(F)(F)c4c(F)cccc4F)cc3)c12 [Example 153]
- IC50 (BT474 cell proliferation): 121 nM

SMILES: Nc1nccn2c(C3CCC(CO)OC3)nc(-c3ccc(Oc4ccccc4)cc3)c12 (centres unmarked) [Example 16]
- % Remaining (60 min) Human [1]: 31.8%
- microsomal CLint [1]: 36.9 µL/min/mg
- % Remaining (60 min) Rat [2]: 14.6%
- microsomal CLint [2]: 63.9 µL/min/mg

SMILES: Nc1nccn2c(C3CCC(CO)OC3)nc(-c3ccc(C(F)(F)c4ccccc4)cc3)c12 (centres unmarked) [Example 111]
- microsomal CLint [1]: 10.9 µL/min/mg
- microsomal CLint [2]: 26.1 µL/min/mg

SMILES: COc1ccccc1C(=O)NCc1ccc(-c2nn(C3CCC(CO)OC3)c3ncnc(N)c23)cc1 (single isomer, unassigned) [Example 60-B]
- Cl [3]: 188.82 mL/min/kg

SMILES: Nc1nccn2c(C34CCC(CO)(CC3)OC4)nc(-c3ccc(C(O)(c4ccccc4)C(F)(F)F)cc3)c12 (centres unmarked) [Example 157]
- IC50 (BT474 cell proliferation): 2270 nM

SMILES: Cc1cccc(C(F)(F)c2ccc(-c3nc(C45CCC(CO)(CC4)OC5)n4ccnc(N)c34)cc2)c1F [Example 139]
- IC50 (BT474 cell proliferation): 209 nM

SMILES: Cc1cccc(Oc2ccc(-c3nc(C4CCC(CO)OC4)n4ccnc(N)c34)cc2)c1F (centres unmarked) [Example 24]
- microsomal CLint [1]: 74.9 µL/min/mg
- microsomal CLint [2]: 255 µL/min/mg

SMILES: COc1cccc(Oc2ccc(-c3nc(C4CCC(CO)OC4)n4c(Cl)cnc(N)c34)cc2)c1F (centres unmarked) [Example 12]
- % Remaining (60 min) Human [1]: 2.6%
- microsomal CLint [1]: 124 µL/min/mg
- % Remaining (60 min) Rat [2]: 3.0%
- microsomal CLint [2]: 118 µL/min/mg

SMILES: COc1cccc(C(F)(F)c2ccc(-c3nc(C45CCC(CO)(CC4)OC5)n4ccnc(N)c34)cc2)c1F [Example 129]
- IC50 (BT474 cell proliferation): 208 nM

SMILES: Nc1nccn2c(C34CCC(CO)(CC3)OC4)nc(-c3ccc(C(F)(F)c4ccccc4)cc3F)c12 [Example 114]
- IC50 (BT474 cell proliferation): 173 nM

SMILES: N#Cc1ccnc(NC(=O)c2ccc(-c3nc(C4CCC(CO)OC4)n4ccnc(N)c34)cc2)c1 (centres unmarked) [Example 103]
- microsomal CLint [1]: < 9.6 µL/min/mg
- microsomal CLint [2]: < 9.6 µL/min/mg
- Cl [3]: 16.67 mL/min/kg
- IC50 (TMD8 cell proliferation): 25.1 nM

SMILES: Nc1nccn2c(C3CC[C@@H](CO)OC3)nc(-c3ccc(C(=O)Nc4ccccn4)cc3F)c12 (some centres unmarked) [Example 1-B]
- CLint (μL/min/mg) Human [1]: <9.6 µL/min/mg
- % Remaining (60 min) Human [1]: 99.9%
- CLint (μL/min/mg) Rat [2]: 18.2 µL/min/mg
- % Remaining (60 min) Rat [2]: 63.7%

SMILES: Nc1nccn2c(C34CCC(CO)(CC3)OC4)nc(-c3ccc(C(c4ccccc4)(C(F)(F)F)C(F)(F)F)cc3)c12 [Example 159]
- IC50 (BT474 cell proliferation): > 1000 nM

SMILES: COc1cccc(Oc2ccc(-c3nc(C4CCC(CO)OC4)n4ccnc(N)c34)cc2)c1F (centres unmarked) [Example 5]
- microsomal CLint [1]: 38.8 µL/min/mg
- microsomal CLint [2]: 122 µL/min/mg

SMILES: Nc1nccn2c(C3CCC(CO)OC3)nc(-c3ccc(C(=O)Nc4cc(C(F)(F)F)ccn4)cc3)c12 (single isomer, unassigned) [Example 109-P1]
- IC50 (TMD8 cell proliferation): 12.2 nM

SMILES: Nc1nccn2c([C@@H]3CC[C@H](CO)OC3)nc(-c3ccc(C(=O)Nc4ccccn4)cc3)c12 (single isomer, unassigned) [Example 2-A-P1]
- CLint (μL/min/mg) Human [1]: <9.6 µL/min/mg
- % Remaining (60 min) Human [1]: 122.5%
- CLint (μL/min/mg) Rat [2]: <9.6 µL/min/mg
- % Remaining (60 min) Rat [2]: 95.5%
- AUC(0-∞) [3]: 77004 ng·h/mL

SMILES: Nc1nccn2c(C34CCC(CO)(CC3)OC4)nc(-c3ccc(C(F)(F)c4ccc(F)c(Cl)c4)cc3)c12 [Example 140]
- IC50 (BT474 cell proliferation): 504 nM

SMILES: Nc1nccn2c(C34CCC(CO)(CC3)OC4)nc(-c3ccc(C(F)(F)c4c(F)c(F)cc(F)c4F)cc3)c12 [Example 144]
- IC50 (BT474 cell proliferation): 191 nM

SMILES: Nc1nccn2c(C34CCC(CO)(CC3)OC4)nc(-c3ccc(C(F)(F)c4ccccc4F)c(F)c3)c12 [Example 156]
- IC50 (BT474 cell proliferation): 269 nM

SMILES: Cc1c(F)cccc1C(F)(F)c1ccc(-c2nc(C34CCC(CO)(CC3)OC4)n3ccnc(N)c23)cc1 [Example 147]
- IC50 (BT474 cell proliferation): 377 nM

SMILES: Cc1ccnc(NC(=O)c2ccc(-c3nc(C4CCC(CO)OC4)n4ccnc(N)c34)cc2)c1 (centres unmarked) [Example 70]
- microsomal CLint [1]: 13.2 µL/min/mg
- microsomal CLint [2]: 30.3 µL/min/mg

SMILES: Nc1nccn2c(C3CCC(CO)OC3)nc(-c3ccc(Cc4ccccc4)cc3)c12 (centres unmarked) [Example 106]
- microsomal CLint [1]: 13.1 µL/min/mg
- microsomal CLint [2]: 29.5 µL/min/mg
- IC50 (TMD8 cell proliferation): 49.5 nM

SMILES: Nc1nccn2c(C3CCC(CO)OC3)nc(-c3ccc(C(=O)c4ccccc4)cc3)c12 (centres unmarked) [Example 26]
- microsomal CLint [1]: 31.1 µL/min/mg
- microsomal CLint [2]: 46.1 µL/min/mg
